# Tested on: murine dermal fibroblasts
# Assay: RNA-Seq of newborn murine dermal fibroblasts
# Type: cell-based, mouse
# Settings: 10^−7 M, 24 h
# Procedure: All animal studies followed guidelines outlined by the NIH Guide for the Care and Use of Laboratory Animals and protocols were approved by the Institutional Animal Care and Use Committee at the NIEHS or the UAB. […] Skin samples from newborn C57BL/6 mice were collected at the NIEHS. Dermal fibroblasts were isolated from the skin of newborn mice, 1–2 day old. Briefly, we followed the protocols described previously. The skin was washed in PBS, cut into smaller pieces and incubated in 2.4 U/ml of dispase II (Roche) overnight at 4 °C. The dermis was separated from the epidermis and incubated in 0.1% collagenase (Roche) at 4 °C overnight. […] Single cell suspension was prepared by pipetting and draining through a cell strainer. After centrifugation, cell pellets were suspended in DMEM medium containing 10% charcoal-stripped fetal bovine serum (cFBS), mouse fibroblasts growth factor (FGF) and 1% antibiotic, and inoculated into tissue culture dishes (Midwest Scientific, TPP). Cells, in early passages, from different mice were pooled together to provide representative samples for experiments. Fibroblasts were cultured in Petri dishes (10 cm in diameter) in DMEM and 10% cFBS and triplicate semi-confluent cultures were treated as described.
# Triplicate cultures of murine fibroblasts were used for RNA isolation (RNAeasy Micro kit, Qiagen), the RNA samples were combined for each condition and at least 200 ng of RNA for each sample was used to create libraries for RNA sequencing by BGI Americas Corporation Service (Cambridge, MA)[67]. Quality of RNA and its concentration were determined using Agilent 2100.
# The raw sequence FASTQ files were aligned to Gencode’s GRCm38 p4 Release M11 genome using STAR version 2.5.4b (parameters used: –outReadsUnmapped Fastx; –outSAMtype BAM SortedByCoordinate; –outSAMattributes All; –outFilterIntronMotifs RemoveNoncanonicalUnannotated)[69]. The abundance of transcripts was calculated from the alignments using Cufflinks version 2.2.1 (parameters used: –G; –L; –library-type fr-firststrand). Samples were merged using default parameters with Cuffmerge[70],[71]. The differential expression was calculated using Cuffdiff’s default parameters. The raw data have been deposited at the NCBI GEO (GSE145818).
compound,measurement,setting,value
"C=C1C(=CC=C2CCCC3(C)C2CCC3C(C)(O)CC(O)CC(C)C)CC(O)CC1O (stereo not shown) [1,20,23(OH)3D3]",Adh7 expression level,,1.313
same,Adh7 log2(fold_change) vs control,,2.36
same,Aqp11 expression level,,0.9394
same,Aqp11 log2(fold_change) vs control,,2.077
same,Arid3b expression level,,0.6082
same,Arid3b log2(fold_change) vs control,,-2.478
same,Bicd1 expression level,,0.7058
same,Bicd1 log2(fold_change) vs control,,-1.592
same,Btc expression level,,1.117
same,Btc log2(fold_change) vs control,,2.211
same,Car9 expression level,,2.818
same,Car9 log2(fold_change) vs control,,-1.732
same,Cbs expression level,,0.2989
same,Cbs log2(fold_change) vs control,,-2.697
same,Ccl4 expression level,,0.3377
same,Ccl4 log2(fold_change) vs control,,-1.322
same,Cd68 expression level,,3.541
same,Cd68 log2(fold_change) vs control,,1.639
same,Cd200 expression level,,0.5777
same,Cd200 log2(fold_change) vs control,,-1.286
same,Cherp expression level,,32.7784
same,Cherp log2(fold_change) vs control,,-2.489
same,Clec2g expression level,,0
same,Clec2g log2(fold_change) vs control,,-inf
same,Cnnm4 expression level,,4.2236
same,Cnnm4 log2(fold_change) vs control,,-3.566
same,Cox15 expression level,,15.6597
same,Cox15 log2(fold_change) vs control,,1.429
same,Cpa2 expression level,,0.3128
same,Cpa2 log2(fold_change) vs control,,-2.322
same,Ctrl expression level,,0.34
same,Ctrl log2(fold_change) vs control,,-1.578
same,Dcun1d1 expression level,,4.162
same,Dcun1d1 log2(fold_change) vs control,,-1.661
same,Defb42 expression level,,0.2203
same,Defb42 log2(fold_change) vs control,,-2.046
same,Dtx1 expression level,,0.142
same,Dtx1 log2(fold_change) vs control,,-3.544
same,Ehf expression level,,0.2985
same,Ehf log2(fold_change) vs control,,-1.4739
same,Ercc2 expression level,,13.9366
same,Ercc2 log2(fold_change) vs control,,-3.6
same,Erh expression level,,2.618
same,Erh log2(fold_change) vs control,,-1.258
same,Fmnl1 expression level,,0.2192
same,Fmnl1 log2(fold_change) vs control,,-2.084
same,Gys2 expression level,,0
same,Gys2 log2(fold_change) vs control,,-inf
same,Hist1h2ab expression level,,1.43
same,Hist1h2ab log2(fold_change) vs control,,2.322
same,Hist1h2bg expression level,,0
same,Hist1h2bg log2(fold_change) vs control,,-inf
same,Hist1h2bh expression level,,0
same,Hist1h2bh log2(fold_change) vs control,,-inf
same,Hist1h4c expression level,,0.4025
same,Hist1h4c log2(fold_change) vs control,,-1
same,Isl1 expression level,,0.3246
same,Isl1 log2(fold_change) vs control,,-1.301
same,Krt19 expression level,,10.3867
same,Krt19 log2(fold_change) vs control,,1.043
same,Larp1b expression level,,6.304
same,Lhx6 expression level,,2.879
same,Lhx6 log2(fold_change) vs control,,-2.012
same,Lsm5 expression level,,1.269
same,Lsm5 log2(fold_change) vs control,,-1.065
same,M1ap expression level,,2.14
same,M1ap log2(fold_change) vs control,,1.796
same,Med9os expression level,,0.7829
same,Med9os log2(fold_change) vs control,,-1.4
same,Nckipsd expression level,,23.2533
same,Nckipsd log2(fold_change) vs control,,2.486
same,Nr3c2 expression level,,0.0668
same,Nr3c2 log2(fold_change) vs control,,-4.037
same,Nr6a1 expression level,,0.2068
same,Nr6a1 log2(fold_change) vs control,,-3.152
same,Ntrk3 expression level,,0.4025
same,Ntrk3 log2(fold_change) vs control,,-2.2019
same,Parvg expression level,,0.1595
same,Parvg log2(fold_change) vs control,,-3.209
same,Pde4dip expression level,,24.1833
same,Pde4dip log2(fold_change) vs control,,-7.338
same,Psd4 expression level,,0.1018
same,Psd4 log2(fold_change) vs control,,-3.94
same,Ptpa expression level,,214.561
same,Ptpa log2(fold_change) vs control,,1.701
same,Ptpn6 expression level,,3.903
same,Ptpn6 log2(fold_change) vs control,,-1.613
same,Rnu3a expression level,,0
same,Rnu3a log2(fold_change) vs control,,-inf
same,Rpph1 expression level,,0.6553
same,Rpph1 log2(fold_change) vs control,,-1
same,Rsad1 expression level,,1.419
same,Rsad1 log2(fold_change) vs control,,-1.14
same,Saa1 expression level,,0.1901
same,Saa1 log2(fold_change) vs control,,-2.322
same,Samd12 expression level,,0.2728
same,Samd12 log2(fold_change) vs control,,-3.717
same,Scn8a expression level,,0.1998
same,Scn8a log2(fold_change) vs control,,-2
same,Sgca expression level,,0.5689
same,Sgca log2(fold_change) vs control,,-1.112
same,Slc15a4 expression level,,13.3996
same,Slc15a4 log2(fold_change) vs control,,-2.086
same,Slc16a5 expression level,,0.07215
same,Slc16a5 log2(fold_change) vs control,,-3.671
same,Snhg9 expression level,,3.722
same,Snhg9 log2(fold_change) vs control,,-2.322
same,St7 expression level,,24.6198
same,St7 log2(fold_change) vs control,,-1.48
same,Stmn1 expression level,,5.272
same,Stmn1 log2(fold_change) vs control,,1.77
same,Susd1 expression level,,2.296
same,Susd1 log2(fold_change) vs control,,1.732
same,Syt8 expression level,,0.5148
same,Syt8 log2(fold_change) vs control,,-2.627
same,Syt12 expression level,,0.9828
same,Syt12 log2(fold_change) vs control,,-2.055
same,Tldc2 expression level,,0
same,Tldc2 log2(fold_change) vs control,,-inf
same,Tnnc2 expression level,,0.3105
same,Tnnc2 log2(fold_change) vs control,,-1.361
same,Unc5c expression level,,0.4569
same,Unc5c log2(fold_change) vs control,,-1.248
same,Wdr17 expression level,,0.2366
same,Wdr17 log2(fold_change) vs control,,-3.241
same,Zbtb18 expression level,,4.229
same,Zbtb18 log2(fold_change) vs control,,-3.388
same,Zfp618 expression level,,1.3488
same,Zfp618 log2(fold_change) vs control,,-1.817
same,"number of genes downregulated, FC ≥ 2",,520
same,"number of genes upregulated, FC ≥ 2",,531
same,number of genes solely downregulated,FC ≥ 2,113 (10.7%)
same,number of genes solely upregulated,FC ≥ 2,256 (17%)

# — PMC8044163, “Vitamin D and lumisterol derivatives can act on liver X receptors (LXRs)” (Scientific Reports, 2021)
